Results: patent US6608082B1, “Treatment of erectile dysfunction using isoquinoline compound melanocortin receptor ligands” (Lion Bioscience AG, priority 1998, dated 2003)

Legend:
MCR-4 = target: T1, MCR-4 (Homo sapiens, UniProt P32245); assay: Melanocortin receptor binding assay, competition with 125I-HP 467, HEK 293 cells expressing hMCR-4; conditions: inhibition of binding of 125I-HP 467, HEK 293 cells expressing MCR-4; read-out: MC-4 IC50
T1 construct: expressed in transfected cells; host or cells: HEK 293
T1 sequence (P32245 whole entry): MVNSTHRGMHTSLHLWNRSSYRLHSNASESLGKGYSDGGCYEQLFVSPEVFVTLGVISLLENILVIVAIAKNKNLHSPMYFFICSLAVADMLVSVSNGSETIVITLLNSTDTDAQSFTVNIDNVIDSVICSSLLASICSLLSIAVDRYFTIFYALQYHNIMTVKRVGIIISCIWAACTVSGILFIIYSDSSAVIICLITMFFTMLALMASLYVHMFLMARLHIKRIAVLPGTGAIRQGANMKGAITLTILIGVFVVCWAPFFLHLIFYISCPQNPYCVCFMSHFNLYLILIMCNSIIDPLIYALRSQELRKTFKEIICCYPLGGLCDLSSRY
In short: (§1)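 Test compounds compete on intact HEK 293 cells carrying hMCR-1 (2×10^4 per tube) or hMCR-4 (4×10^3 per tube), suspended in PBS, 10% calf serum, 1 mM CaCl2.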

MCR-1 = target: T2, MCR-1 (Homo sapiens, UniProt Q01726); assay: Melanocortin receptor binding assay, competition with 125I-HP 467, HEK 293 cells expressing hMCR-1; conditions: inhibition of binding of 125I-HP 467, HEK 293 cells expressing MCR-1; for IC50: read-out: MC-1 IC50
T2 construct: expressed in transfected cells; host or cells: HEK 293
T2 sequence (Q01726 whole entry): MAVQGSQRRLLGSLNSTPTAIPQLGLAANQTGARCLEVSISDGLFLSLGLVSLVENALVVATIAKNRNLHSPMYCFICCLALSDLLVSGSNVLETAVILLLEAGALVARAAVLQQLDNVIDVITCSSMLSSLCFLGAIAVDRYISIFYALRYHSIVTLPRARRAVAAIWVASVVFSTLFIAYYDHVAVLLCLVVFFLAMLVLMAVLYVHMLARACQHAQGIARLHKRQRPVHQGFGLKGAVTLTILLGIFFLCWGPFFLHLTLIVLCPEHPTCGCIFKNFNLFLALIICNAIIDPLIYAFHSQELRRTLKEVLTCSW
In short: as §1

CCNC(CN)CCCCN1Cc2ccccc2C(CN)C1c1ccc(O)cc1 (stereo not drawn) [TRG 2415-15]
IC50 (MCR-4): 63900 nM | MC-1 IC50 (MCR-1): no fit

CCNC(CN)CCCCN1Cc2ccccc2C(CN)C1c1ccc(OCC)cc1 (stereo not drawn) [TRG 2415-16]
IC50 (MCR-4): 3990 nM | IC50 (MCR-1): 1330 nM

CCCOc1ccc(C2C(CN)c3ccccc3CN2CCCCC(CN)NCC)cc1 (stereo not drawn) [TRG 2415-17]
IC50 (MCR-4): 9350 nM | IC50 (MCR-1): 581 nM

CCNC(CN)CCCCN1Cc2ccccc2C(CN)C1c1ccc(CC)cc1 (stereo not drawn) [TRG 2415-19]
IC50 (MCR-4): 2040 nM | IC50 (MCR-1): 1460 nM

CCCCCc1ccc(C2C(CN)c3ccccc3CN2CCCC[C@@H](CN)NCC)cc1 (stereo partly drawn) [TRG 2415-20]
IC50 (MCR-4): 4540 nM | IC50 (MCR-1): 273 nM

CCNc1ccc(C2C(CNCCc3ccccc3)c3ccccc3CN2CCCC(CN)NCCCCNc2ccccc2)cc1 (stereo not drawn) [TRG 2419-1]
IC50 (MCR-4): 3010 nM | IC50 (MCR-1): 110 nM

CCNc1ccc(C2C(CNCCc3ccccc3)c3ccccc3CN2CCCC(CN)NCCCCNCc2ccccc2)cc1 (stereo not drawn) [TRG 2419-3]
IC50 (MCR-4): 2150 nM | IC50 (MCR-1): 49 nM

CCNc1ccc(C2C(CNCCc3ccccc3)c3ccccc3CN2CCCC(CN)NCCCCN(CC)CC)cc1 (stereo not drawn) [TRG 2419-4]
IC50 (MCR-4): 14400 nM | IC50 (MCR-1): 58 nM

CCNc1ccc(C2C(CN)c3ccccc3CN2CCCC(CN)NCCCCNCc2ccccc2)cc1 (stereo not drawn) [TRG 2419-6]
IC50 (MCR-4): 6410 nM | IC50 (MCR-1): 82 nM

CCNc1ccc(C2C(CN)c3ccccc3CN2CCCC(CN)NCCCCN(CC)CC)cc1 (stereo not drawn) [TRG 2419-7]
IC50 (MCR-4): 10100 nM | IC50 (MCR-1): 141 nM

CCNc1ccc(C2C(CN)c3ccccc3CN2CCCC(CN)NCCCCO)cc1 (stereo not drawn) [TRG 2419-8]
IC50 (MCR-4): 6910 nM | IC50 (MCR-1): 1090 nM

CCNc1ccc(C2C(CN)c3ccccc3CN2CCCC(CN)NCCCCNc2ccccc2)cc1 (stereo not drawn) [TRG 2419-9]
IC50 (MCR-4): 10000 nM | IC50 (MCR-1): 239 nM

CCNc1ccc(C2C(CN)c3ccccc3CN2CCCC(CN)NCCCCNC(C)(C)C)cc1 (stereo not drawn) [TRG 2419-10]
IC50 (MCR-4): 4320 nM | IC50 (MCR-1): 93 nM

CCNc1ccc(C2C(CN)c3ccccc3CN2CCCC(CN)NCCCCN)cc1 (stereo not drawn) [TRG 2419-11]
IC50 (MCR-4): 18400 nM | IC50 (MCR-1): 199 nM

CCNc1ccc(C2C(CN)c3ccccc3CN2CCCC(CN)NCCCCNCCc2ccccc2)cc1 (stereo not drawn) [TRG 2419-12]
IC50 (MCR-4): 16700 nM | IC50 (MCR-1): 73 nM

CCNc1ccc(C2C(CN)c3ccccc3CN2CCCC(CN)NCCCCN2CCCCC2)cc1 (stereo not drawn) [TRG 2419-13]
IC50 (MCR-4): 2510 nM | IC50 (MCR-1): 73 nM

CCNc1ccc(C2C(CNCCc3ccccc3)c3ccccc3CN2CCCC(CN)NCCCCCNC(C)C)cc1 (stereo not drawn) [TRG 2420-1]
IC50 (MCR-4): 1500 nM | IC50 (MCR-1): 46 nM

CCNc1ccc(C2C(CNCCc3ccccc3)c3ccccc3CN2CCCC(CN)NCCCCCNCc2ccccc2)cc1 (stereo not drawn) [TRG 2420-2]
IC50 (MCR-4): 4050 nM | IC50 (MCR-1): 76 nM

CCNc1ccc(C2C(CNCCc3ccccc3)c3ccccc3CN2CCCC(CN)NCCCCCN(CC)CC)cc1 (stereo not drawn) [TRG 2420-3]
IC50 (MCR-4): 8230 nM | IC50 (MCR-1): 30 nM

CCNc1ccc(C2C(CNCCc3ccccc3)c3ccccc3CN2CCCC(CN)NCCCCCNCCc2ccccc2)cc1 (stereo not drawn) [TRG 2420-4]
IC50 (MCR-4): 4170 nM | IC50 (MCR-1): 68 nM

CCNc1ccc(C2C(CNCCc3ccccc3)c3ccccc3CN2CCCC(CN)NCC2CC2CNC(C)C)cc1 (stereo not drawn) [TRG 2420-5]
IC50 (MCR-4): 9880 nM | IC50 (MCR-1): 43 nM

CCNc1ccc(C2C(CNCCc3ccccc3)c3ccccc3CN2CCCC(CN)NCC2CC2CNCc2ccccc2)cc1 (stereo not drawn) [TRG 2420-6]
IC50 (MCR-4): 5130 nM | IC50 (MCR-1): 103 nM

CCNc1ccc(C2C(CNCCc3ccccc3)c3ccccc3CN2CCCC(CN)NCC2CC2CN(CC)CC)cc1 (stereo not drawn) [TRG 2420-7]
IC50 (MCR-4): 1810 nM | IC50 (MCR-1): 63 nM

CCNc1ccc(C2C(CNCCc3ccccc3)c3ccccc3CN2CCCC(CN)NCC2CC2CNCCc2ccccc2)cc1 (stereo not drawn) [TRG 2420-8]
IC50 (MCR-4): 2360 nM | IC50 (MCR-1): 208 nM

CCNc1ccc(C2C(CNCCc3ccccc3)c3ccccc3CN2CCCC(CN)NCCOCCNC(C)C)cc1 (stereo not drawn) [TRG 2420-9]
IC50 (MCR-4): 3230 nM | IC50 (MCR-1): 40 nM

CCNc1ccc(C2C(CNCCc3ccccc3)c3ccccc3CN2CCCC(CN)NCCOCCNCc2ccccc2)cc1 (stereo not drawn) [TRG 2420-10]
IC50 (MCR-4): 940 nM | IC50 (MCR-1): 55 nM

CCNc1ccc(C2C(CNCCc3ccccc3)c3ccccc3CN2CCC[C@@H](CN)NCCOCCN(CC)CC)cc1 (stereo partly drawn) [TRG 2420-11]
IC50 (MCR-4): 4630 nM | IC50 (MCR-1): 28 nM

CCNc1ccc(C2C(CNCCc3ccccc3)c3ccccc3CN2CCCC(CN)NCCOCCNCCc2ccccc2)cc1 (stereo not drawn) [TRG 2420-12]
IC50 (MCR-4): 1530 nM | IC50 (MCR-1): 79 nM

CCNc1ccc(C2C(CNCCc3ccccc3)c3ccccc3CN2CCCC(CN)NCc2ccccc2CNC(C)C)cc1 (stereo not drawn) [TRG 2420-13]
IC50 (MCR-4): 670 nM | IC50 (MCR-1): 65 nM

CCNc1ccc(C2C(CNCCc3ccccc3)c3ccccc3CN2CCCC(CN)NCc2ccccc2CNCc2ccccc2)cc1 (stereo not drawn) [TRG 2420-14]
IC50 (MCR-4): 290 nM | IC50 (MCR-1): 135 nM

CCNc1ccc(C2C(CNCCc3ccccc3)c3ccccc3CN2CCCC(CN)NCc2ccccc2CN(CC)CC)cc1 (stereo not drawn) [TRG 2420-15]
IC50 (MCR-4): 1370 nM | IC50 (MCR-1): 70 nM

CCNc1ccc(C2C(CNCCc3ccccc3)c3ccccc3CN2CCCC(CN)NCc2ccccc2CNCCc2ccccc2)cc1 (stereo not drawn) [TRG 2420-16]
IC50 (MCR-4): 1200 nM | IC50 (MCR-1): 164 nM

CCNc1ccc(C2C(CN)c3ccccc3CN2CCCC(CN)NCC2CC2CNC(C)C)cc1 (stereo not drawn) [TRG 2420-25]
IC50 (MCR-4): 4820 nM | IC50 (MCR-1): 103 nM

CCNc1ccc(C2C(CN)c3ccccc3CN2CCCC(CN)NCC2CC2CNCc2ccccc2)cc1 (stereo not drawn) [TRG 2420-26]
IC50 (MCR-4): 5010 nM | IC50 (MCR-1): 93 nM

CCNc1ccc(C2C(CN)c3ccccc3CN2CCCC(CN)NCC2CC2CN(CC)CC)cc1 (stereo not drawn) [TRG 2420-27]
IC50 (MCR-4): 4190 nM | IC50 (MCR-1): 40 nM

CCNc1ccc(C2C(CN)c3ccccc3CN2CCCC(CN)NCC2CC2CNCCc2ccccc2)cc1 (stereo not drawn) [TRG 2420-28]
IC50 (MCR-4): 4080 nM | IC50 (MCR-1): 203 nM

NCC(CCCCN1Cc2ccccc2C(CNCCc2ccccc2)C1c1cc(C(F)(F)F)cc(C(F)(F)F)c1)NCc1ccccc1 (stereo not drawn) [TRG 2421-1]
IC50 (MCR-4): 1780 nM | IC50 (MCR-1): 4180 nM

NCC(CCCCN1Cc2ccccc2C(CNCCc2ccccc2)C1c1cc(C(F)(F)F)cc(C(F)(F)F)c1)NCc1ccc(Br)cc1 (stereo not drawn) [TRG 2421-3]
IC50 (MCR-4): 9640 nM | IC50 (MCR-1): 4910 nM

COc1ccc(CNC(CN)CCCCN2Cc3ccccc3C(CNCCc3ccccc3)C2c2cc(C(F)(F)F)cc(C(F)(F)F)c2)cc1 (stereo not drawn) [TRG 2421-4]
IC50 (MCR-4): 2810 nM | IC50 (MCR-1): 2570 nM

NCC(CCCCN1Cc2ccccc2C(CNCCc2ccccc2)C1c1cc(C(F)(F)F)cc(C(F)(F)F)c1)NCc1ccc(-c2ccccc2)cc1 (stereo not drawn) [TRG 2421-5]
IC50 (MCR-4): 9410 nM | IC50 (MCR-1): 11200 nM

NCC(CCCCN1Cc2ccccc2C(CNCCc2ccc(O)cc2)C1c1cc(C(F)(F)F)cc(C(F)(F)F)c1)NCc1ccccc1 (stereo not drawn) [TRG 2421-6]
IC50 (MCR-4): 760 nM | IC50 (MCR-1): 2250 nM

Cc1ccc(CNC(CN)CCCCN2Cc3ccccc3C(CNCCc3ccc(O)cc3)C2c2cc(C(F)(F)F)cc(C(F)(F)F)c2)cc1 (stereo not drawn) [TRG 2421-7]
IC50 (MCR-4): 4530 nM | IC50 (MCR-1): 3190 nM

COc1ccc(CNC(CN)CCCCN2Cc3ccccc3C(CNCCc3ccc(O)cc3)C2c2cc(C(F)(F)F)cc(C(F)(F)F)c2)cc1 (stereo not drawn) [TRG 2421-9]
IC50 (MCR-4): 1750 nM | IC50 (MCR-1): 1500 nM

NCC(CCCCN1Cc2ccccc2C(CNCCc2ccc(O)cc2)C1c1cc(C(F)(F)F)cc(C(F)(F)F)c1)NCc1ccc(-c2ccccc2)cc1 (stereo not drawn) [TRG 2421-10]
IC50 (MCR-4): 9110 nM | IC50 (MCR-1): 4770 nM

COc1ccc(CCNCC2c3ccccc3CN(CCCCC(CN)NCc3ccc(C)cc3)C2c2cc(C(F)(F)F)cc(C(F)(F)F)c2)cc1 (stereo not drawn) [TRG 2421-12]
IC50 (MCR-4): 1400 nM | IC50 (MCR-1): 2570 nM
